Values quoted from earlier work as cited in patent EP4437048B1, “ENERGY CURABLE INK, COATING AND PRIMER COMPOSITIONS CONTAINING HIGHLY ALKOXYLATED GLYCEROL ACRYLATES FOR RETORT PACKAGING APPLICATIONS” (Sun Chemical B.V., priority 2022, dated 2024).

Settings: specific migration limit of the acrylate (Table 7)

SMILES: C=CC(=O)OCC(CC)(COCC(CC)(COC(=O)C=C)COC(=O)C=C)COC(=O)C=C [Di-TMPTA]
- SML: 10 ppb
